# According to the supplement of paper PMC5321775:
# ± gives the standard deviation of the averaged measurements or the uncertainty stated by the source.
# Experiments:
# [1] = tested on: Caenorhabditis briggsae JU1348; assay: mean adult lifespan of treated cohort (days); higher = longer lifespan; conditions: exposure: chronic from day 1 of adulthood, single dose per compound (concentration not stated in sheet)
# Experimental: (§1)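 Caenorhabditis lifespan assay (CITP). Synchronised hermaphrodites were moved on the first day of adulthood onto 35 mm NGM plates with live E. coli OP50-1 and 51 uM FUdR, with the compound spread on the plate. Worms were kept at 20 C and scored for survival.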
# [2] = tested on: Caenorhabditis elegans MY16; assay: as above; conditions: exposure: chronic from day 1 of adulthood, single dose per compound (concentration not stated in sheet)
# Experimental: as §1
# [3] = tested on: Caenorhabditis elegans N2; assay: as above; conditions: exposure: chronic from day 1 of adulthood, single dose per compound (concentration not stated in sheet)
# Experimental: as §1
# [4] = tested on: Caenorhabditis briggsae HK104; assay: as above; conditions: exposure: chronic from day 1 of adulthood, single dose per compound (concentration not stated in sheet)
# Experimental: as §1
# [5] = tested on: Caenorhabditis briggsae AF16; assay: as above; conditions: exposure: chronic from day 1 of adulthood, single dose per compound (concentration not stated in sheet)
# Experimental: as §1
# [6] = tested on: Caenorhabditis elegans JU775; assay: as above; conditions: exposure: chronic from day 1 of adulthood, single dose per compound (concentration not stated in sheet)
# Experimental: as §1
# [7] = tested on: Caenorhabditis briggsae JU1348; assay: mean adult lifespan of treated plate (days); higher = longer lifespan; conditions: exposure: chronic from day 1 of adulthood
# Experimental: (§2)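 Dose-response lifespan assays in three C. briggsae strains (AF16, HK104, JU1348), run per plate (35-40 animals) on NGM with live OP50-1 and 51 uM FUdR at 20 C. Compound was added to the plate surface and worms were exposed from the first day of adulthood.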
# [8] = tested on: Caenorhabditis briggsae HK104; assay: as above; conditions: exposure: chronic from day 1 of adulthood
# Experimental: as §2
# [9] = tested on: Caenorhabditis briggsae AF16; assay: as above; conditions: exposure: chronic from day 1 of adulthood
# Experimental: as §2
# [10] = tested on: Caenorhabditis briggsae JU1348; assay: Kaplan-Meier median lifespan of treated cohort (days); higher = longer lifespan; conditions: exposure: chronic from day 1 of adulthood, single dose per compound (concentration not stated in sheet)
# Experimental: as §1
# [11] = tested on: Caenorhabditis elegans MY16; assay: as above; conditions: exposure: chronic from day 1 of adulthood, single dose per compound (concentration not stated in sheet)
# Experimental: as §1
# [12] = tested on: Caenorhabditis elegans N2; assay: as above; conditions: exposure: chronic from day 1 of adulthood, single dose per compound (concentration not stated in sheet)
# Experimental: as §1
# [13] = tested on: Caenorhabditis briggsae HK104; assay: as above; conditions: exposure: chronic from day 1 of adulthood, single dose per compound (concentration not stated in sheet)
# Experimental: as §1
# [14] = tested on: Caenorhabditis briggsae AF16; assay: as above; conditions: exposure: chronic from day 1 of adulthood, single dose per compound (concentration not stated in sheet)
# Experimental: as §1
# [15] = tested on: Caenorhabditis elegans JU775; assay: as above; conditions: exposure: chronic from day 1 of adulthood, single dose per compound (concentration not stated in sheet)
# Experimental: as §1
# [16] = tested on: Caenorhabditis briggsae JU1348; assay: Kaplan-Meier median lifespan of treated plate (days); higher = longer lifespan; conditions: exposure: chronic from day 1 of adulthood
# Experimental: as §2
# [17] = tested on: Caenorhabditis briggsae HK104; assay: as above; conditions: exposure: chronic from day 1 of adulthood
# Experimental: as §2
# [18] = tested on: Caenorhabditis briggsae AF16; assay: as above; conditions: exposure: chronic from day 1 of adulthood
# Experimental: as §2
smiles,measurement,setting,value
CCCOC(=O)c1cc(O)c(O)c(O)c1 [propyl gallate],mean adult lifespan of treated cohort,[1],24.5 ± 0.75
same,mean adult lifespan of treated cohort,[2],18.3 ± 0.57
same,mean adult lifespan of treated cohort,[3],19 ± 0.4
same,mean adult lifespan of treated cohort,[4],33.4 ± 1
same,mean adult lifespan of treated cohort,[5],24.8 ± 0.89
same,mean adult lifespan of treated cohort,[6],21.5 ± 0.74
same,mean adult lifespan of treated plate,[7]; 20 µM,23.8 ± 1.1
same,mean adult lifespan of treated plate,[7]; 100 µM,26 ± 1.4
same,mean adult lifespan of treated plate,[7]; 200 µM,22.8 ± 1.1
same,mean adult lifespan of treated plate,[7]; 400 µM,24.7 ± 1.2
same,mean adult lifespan of treated plate,[7]; 4000 µM,19.5 ± 0.94
same,mean adult lifespan of treated plate,[8]; 20 µM,33.5 ± 1.6
same,mean adult lifespan of treated plate,[8]; 100 µM,35 ± 1.6
same,mean adult lifespan of treated plate,[8]; 200 µM,33.9 ± 1.3
same,mean adult lifespan of treated plate,[8]; 400 µM,35.1 ± 1.4
same,mean adult lifespan of treated plate,[8]; 4000 µM,21.9 ± 1.4
same,mean adult lifespan of treated plate,[9]; 20 µM,26.6 ± 1.5
same,mean adult lifespan of treated plate,[9]; 100 µM,25 ± 1.5
same,mean adult lifespan of treated plate,[9]; 200 µM,27.2 ± 1.1
same,mean adult lifespan of treated plate,[9]; 400 µM,25.2 ± 1.4
same,mean adult lifespan of treated plate,[9]; 4000 µM,18 ± 1.1
same,Kaplan-Meier median lifespan,[10],24.7 ± 4
same,Kaplan-Meier median lifespan,[11],18.3 ± 3.9
same,Kaplan-Meier median lifespan,[12],18.3 ± 0.82
same,Kaplan-Meier median lifespan,[13],35.5 ± 3
same,Kaplan-Meier median lifespan,[14],24.7 ± 2
same,Kaplan-Meier median lifespan,[15],22.3 ± 2
same,Kaplan-Meier median lifespan,[16]; 20 µM,24.6 ± 4.2
same,Kaplan-Meier median lifespan,[16]; 100 µM,27.3 ± 4.3
same,Kaplan-Meier median lifespan,[16]; 200 µM,21
same,Kaplan-Meier median lifespan,[16]; 400 µM,24.1 ± 4.8
same,Kaplan-Meier median lifespan,[16]; 4000 µM,19.4 ± 2.1
same,Kaplan-Meier median lifespan,[17]; 20 µM,35.4 ± 5.3
same,Kaplan-Meier median lifespan,[17]; 100 µM,36.8 ± 3.5
same,Kaplan-Meier median lifespan,[17]; 200 µM,35
same,Kaplan-Meier median lifespan,[17]; 400 µM,35.5 ± 3.6
same,Kaplan-Meier median lifespan,[17]; 4000 µM,22.2 ± 6.4
same,Kaplan-Meier median lifespan,[18]; 20 µM,26.4 ± 2.5
same,Kaplan-Meier median lifespan,[18]; 100 µM,26.6 ± 2.9
same,Kaplan-Meier median lifespan,[18]; 200 µM,28.3 ± 0.58
same,Kaplan-Meier median lifespan,[18]; 400 µM,26.6 ± 2.4
same,Kaplan-Meier median lifespan,[18]; 4000 µM,17.6 ± 4.5
Oc1ccc(/C=C/c2cc(O)cc(O)c2)cc1 [resveratrol],mean adult lifespan of treated cohort,[1],25.5 ± 0.79
same,mean adult lifespan of treated cohort,[2],18.3 ± 0.59
same,mean adult lifespan of treated cohort,[3],19.2 ± 0.46
same,mean adult lifespan of treated cohort,[4],33.5 ± 1
same,mean adult lifespan of treated cohort,[5],24.6 ± 0.91
same,mean adult lifespan of treated cohort,[6],22.9 ± 0.69
same,mean adult lifespan of treated plate,[7]; 10 µM,25.9 ± 1.5
same,mean adult lifespan of treated plate,[7]; 50 µM,25.7 ± 1.1
same,mean adult lifespan of treated plate,[7]; 200 µM,22.9 ± 1.1
same,mean adult lifespan of treated plate,[7]; 1000 µM,23.6 ± 1
same,mean adult lifespan of treated plate,[8]; 10 µM,35.9 ± 1.3
same,mean adult lifespan of treated plate,[8]; 50 µM,33 ± 1.3
same,mean adult lifespan of treated plate,[8]; 200 µM,35.5 ± 1.5
same,mean adult lifespan of treated plate,[8]; 1000 µM,34.7 ± 1.3
same,mean adult lifespan of treated plate,[9]; 10 µM,26.1 ± 1.4
same,mean adult lifespan of treated plate,[9]; 50 µM,26.9 ± 1.2
same,mean adult lifespan of treated plate,[9]; 200 µM,26.9 ± 1.6
same,mean adult lifespan of treated plate,[9]; 1000 µM,27.6 ± 1.3
same,Kaplan-Meier median lifespan,[10],25.5 ± 1.6
same,Kaplan-Meier median lifespan,[11],18.3 ± 1.5
same,Kaplan-Meier median lifespan,[12],19.2 ± 1.2
same,Kaplan-Meier median lifespan,[13],35.8 ± 3.4
same,Kaplan-Meier median lifespan,[14],24.2 ± 1.5
same,Kaplan-Meier median lifespan,[15],24.2 ± 1.7
same,Kaplan-Meier median lifespan,[16]; 10 µM,25.7 ± 4.7
same,Kaplan-Meier median lifespan,[16]; 50 µM,25.7 ± 4.7
same,Kaplan-Meier median lifespan,[16]; 200 µM,23.2 ± 3.4
same,Kaplan-Meier median lifespan,[16]; 1000 µM,22.6 ± 2.6
same,Kaplan-Meier median lifespan,[17]; 10 µM,36.8 ± 3.5
same,Kaplan-Meier median lifespan,[17]; 50 µM,36.2 ± 3.3
same,Kaplan-Meier median lifespan,[17]; 200 µM,36.9 ± 3
same,Kaplan-Meier median lifespan,[17]; 1000 µM,35.6 ± 3.6
same,Kaplan-Meier median lifespan,[18]; 10 µM,26.1 ± 1.4
same,Kaplan-Meier median lifespan,[18]; 50 µM,27.8 ± 2.7
same,Kaplan-Meier median lifespan,[18]; 200 µM,26.3 ± 1.8
same,Kaplan-Meier median lifespan,[18]; 1000 µM,28.1 ± 2.2
